In patent publication US20190284149A1, “ARYL HYDROCARBON RECEPTOR MODULATOR” (ARIAGEN, INC., priority 2014, published 2019):

biological target: T1, AhR receptor (Homo sapiens, UniProt P35869); assay: AhR agonism assay (luciferase reporter gene cells); format: cell-based; details: not given
T1 construct: expression of native (Human Hepatoma Huh-7) AhR receptor reporter gene cells; endogenous in cells; host or cells: Human hepatoma Huh-7 reporter cells (firefly luciferase under receptor-specific response elements)
T1 sequence (P35869 11-848): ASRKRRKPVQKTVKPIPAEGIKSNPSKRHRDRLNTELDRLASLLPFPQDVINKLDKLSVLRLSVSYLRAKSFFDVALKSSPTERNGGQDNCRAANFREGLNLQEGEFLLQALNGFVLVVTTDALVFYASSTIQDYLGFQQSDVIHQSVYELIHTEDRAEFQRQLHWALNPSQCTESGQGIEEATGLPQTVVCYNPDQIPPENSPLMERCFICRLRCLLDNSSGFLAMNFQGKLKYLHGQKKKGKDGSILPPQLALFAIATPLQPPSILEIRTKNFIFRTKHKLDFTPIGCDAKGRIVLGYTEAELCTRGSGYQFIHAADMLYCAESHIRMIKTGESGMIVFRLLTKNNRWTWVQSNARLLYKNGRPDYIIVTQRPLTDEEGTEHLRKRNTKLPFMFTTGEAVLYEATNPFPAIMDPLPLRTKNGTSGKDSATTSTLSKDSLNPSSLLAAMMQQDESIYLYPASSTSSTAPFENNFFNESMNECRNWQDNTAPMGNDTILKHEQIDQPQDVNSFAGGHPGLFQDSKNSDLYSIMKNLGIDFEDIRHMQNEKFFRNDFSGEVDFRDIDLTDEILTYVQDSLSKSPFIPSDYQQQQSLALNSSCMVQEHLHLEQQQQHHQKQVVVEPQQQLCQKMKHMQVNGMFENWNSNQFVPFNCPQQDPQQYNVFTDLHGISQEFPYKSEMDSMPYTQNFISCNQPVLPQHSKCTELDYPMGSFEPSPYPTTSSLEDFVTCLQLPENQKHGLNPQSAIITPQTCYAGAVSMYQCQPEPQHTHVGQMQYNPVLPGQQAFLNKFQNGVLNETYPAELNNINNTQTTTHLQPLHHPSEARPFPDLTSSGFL
Experimental: Assay Materials (plasmids): expression of native (Human Hepatoma Huh-7) AhR receptor reporter gene cells, the reporter vector includes functional firefly luciferase gene linked to upstream receptor-specific genetic response elements (GRE).
The AhR agonism assay comprises the following three steps:
1. Cell implantation: a suspension of AhR receptor cells was prepared in cell recovery medium (CRM; FBS containing 10% activated carbon). Then, the prepared suspension (100 μl) was dispensed into wells of a white 96-well culture plate.
2. Right before the beginning of the experiment, Master Stocks were diluted to “2× concentration” treatment media with appropriate compound screening media (CSM: FBS containing 10% activated carbon). The test compounds were subjected to gradient dilution with CSM medium containing 0.2% DMSO, so that the final concentration of DMSO in each experimental well for each treatment group was 0.1%. […] The experimental plate was placed in an incubator at 37° C. for 24 h.
3. Fluorescence detection and analysis: after completion of the incubation, the treatment media were discarded and 100 μL/well of luciferase detection reagent was added. The Ave RLU (average relative fluorescence intensity) of each well and the coefficient of variation for each experimental group were determined. The activity of AhR receptor with various concentrations of the test compounds was quantitatively determined using a ratio of Ave RLU^Test Cmpd of various concentrations of the test compounds in the experimental group to Ave RLU^Vehicle of the blank control group, and fold activation and EC50 were determined.
For data processing method, refer to J. Biomol.

Compared with `CC(C)c1nc(C(=O)c2c[nH]c3ccccc23)cs1` [Compound 9], `COC(=O)c1csc(C(=O)c2c[nH]c3ccccc23)c1` [Compound 15] is higher in EC50: 1 to 1000 nM for the first, 10000 to 100000 nM for the second.

`COC(=O)c1nsc(C(=O)c2c[nH]c3ccccc23)n1` [Compound 8] and `COC(=O)c1ccc(C(=O)c2c[nH]c3ccccc23)nc1` [Compound 18] fall in the same range of EC50: 1000 to 10000 nM for the first, 1000 to 10000 nM for the second.

With `COC(=O)c1csc(C(=O)c2cn(CO)c3ccccc23)n1` [Compound 37] the EC50 was 1 to 1000 nM.

same assay, conditions: Human Hepatoma Huh-7 AhR reporter gene cells, 24 h incubation at 37° C., 0.1% DMSO; read-out: EC50

`O=C(c1nc(-c2cnccn2)cs1)c1c[nH]c2ccccc12` [Compound 39] and `O=C(c1nc(-c2ccccn2)cs1)c1c[nH]c2ccccc12` [Compound 22] fall in the same range of EC50: 1 to 1000 nM for the first, 1 to 1000 nM for the second.

`O=C(c1nc(-c2c[nH]cn2)cs1)c1c[nH]c2ccccc12` [Compound 43-2] and `O=C(c1nc(-c2nccs2)cs1)c1c[nH]c2ccccc12` [Compound 31-2] fall in the same range of EC50: 1 to 1000 nM for the first, 1 to 1000 nM for the second.

`COCCOCCOCCOCC(=O)OCn1cc(C(=O)c2nc(C(=O)OC)cs2)c2ccccc21` [Compound 6] and `COCCOCCOCCOCC(=O)OCC(=O)OCn1cc(C(=O)c2nc(C(=O)OC)cs2)c2ccccc21` [Compound 7] fall in the same range of EC50: 1 to 1000 nM for the first, 1 to 1000 nM for the second.

`COC(=O)c1ccc(C(=O)c2c[nH]c3ccccc23)n1C` [Compound 12] and `COC(=O)c1c[nH]c(C(=O)c2c[nH]c3ccccc23)n1` [Compound 23] fall in the same range of EC50: 1 to 1000 nM for the first, 1 to 1000 nM for the second.

`COCCOCCOCCOC(=O)n1cc(C(=O)c2nc(C(=O)OC)cs2)c2ccccc21` [Compound 5] and `COC(=O)COCn1cc(C(=O)c2nc(C(=O)OC)cs2)c2ccccc21` [Compound 3] fall in the same range of EC50: 1 to 1000 nM for the first, 1 to 1000 nM for the second.

`O=C(c1nc(-c2ccco2)cs1)c1c[nH]c2ccccc12` [Compound 40] and `O=C(c1nc(-c2ncco2)cs1)c1c[nH]c2ccccc12` [Compound 33-2] fall in the same range of EC50: 1 to 1000 nM for the first, 1 to 1000 nM for the second.

`COC(=O)c1csc(C(=O)c2cn(C(=O)[C@@H](N)C(C)C)c3ccccc23)n1` [Compound 4-2] and `COC(=O)c1csc(C(=O)c2cn(COC(=O)[C@@H](N)C(C)C)c3ccccc23)n1` [Compound 1-2] fall in the same range of EC50: 1 to 1000 nM for the first, 1 to 1000 nM for the second.

`CO/N=C(/c1nc(C(=O)OC)cs1)c1c[nH]c2ccccc12` [Compound 25-1] and `CO/N=C(\c1nc(C(=O)OC)cs1)c1c[nH]c2ccccc12` [Compound 25-2] fall in the same range of EC50: 1000 to 10000 nM for the first, 1000 to 10000 nM for the second.

`O=C(c1nc(C2=NCCS2)cs1)c1c[nH]c2ccccc12` [Compound 31-1] and `O=C(c1nc(C2=NCCO2)cs1)c1c[nH]c2ccccc12` [Compound 33-1] fall in the same range of EC50: 1 to 1000 nM for the first, 1 to 1000 nM for the second.

`COC(=O)c1csc(C(=O)c2cn(C3OC(COC(C)=O)C(OC(C)=O)C(OC(C)=O)C3OC(C)=O)c3ccccc23)n1` (centres unmarked) [Compound 38-1] and `COC(=O)c1csc(C(=O)c2cn(C3OC(COC(C)=O)C(O)C(O)C3O)c3ccccc23)n1` (centres unmarked) [Compound 38-3] fall in the same range of EC50: 1 to 1000 nM for the first, 1 to 1000 nM for the second.

`COC(=O)c1csc(/C(=N/O)c2c[nH]c3ccccc23)n1` [Compound 26-1] and `COC(=O)c1csc(/C(=N\O)c2c[nH]c3ccccc23)n1` [Compound 26-2] fall in the same range of EC50: 1000 to 10000 nM for the first, 1000 to 10000 nM for the second.

`COC(=O)c1csc(-c2csc(C(=O)c3c[nH]c4ccccc34)n2)n1` [Compound 32-2] and `COC(=O)c1coc(-c2csc(C(=O)c3c[nH]c4ccccc34)n2)n1` [Compound 30-2] fall in the same range of EC50: 1 to 1000 nM for the first, 1 to 1000 nM for the second.

First: COC(=O)c1csc(Cc2c[nH]c3ccccc23)n1 [Compound 28]
Second: COC(=O)CNC(=O)c1csc(C(=O)c2c[nH]c3ccccc23)n1 [Compound 27]
The EC50 of the first is higher: 10000 to 100000 nM for the first, 1 to 1000 nM for the second. The second is the more potent here.

`CC(C)[C@H](NC(=O)OC(C)(C)C)C(=O)n1cc(C(=O)c2nc(-c3nccs3)cs2)c2ccccc21` [Compound 42-1] and `CC(C)[C@H](N)C(=O)n1cc(C(=O)c2nc(-c3nccs3)cs2)c2ccccc21` [Compound 42-2] fall in the same range of EC50: 1 to 1000 nM for the first, 1 to 1000 nM for the second.

`Nc1nc(-c2csc(C(=O)c3c[nH]c4ccccc34)n2)cs1` [Compound 44] and `O=C(c1nc(-c2nnc[nH]2)cs1)c1c[nH]c2ccccc12` [Compound 36] fall in the same range of EC50: 1 to 1000 nM for the first, 1 to 1000 nM for the second.

`COC(=O)[C@@H]1COC(c2csc(C(=O)c3c[nH]c4ccccc34)n2)=N1` [Compound 30-1] and `COC(=O)C1CSC(c2csc(C(=O)c3c[nH]c4ccccc34)n2)=N1` (centres unmarked) [Compound 32-1] fall in the same range of EC50: 1 to 1000 nM for the first, 1 to 1000 nM for the second.

`COC(=O)C1CSC(C(=O)c2c[nH]c3ccc(OC)cc23)=N1` (centres unmarked) [Compound 19-1] and `COC(=O)c1csc(C(=O)c2c[nH]c3ccc(OC)cc23)n1` [Compound 19-2] fall in the same range of EC50: 1 to 1000 nM for the first, 1 to 1000 nM for the second.

First: O=C(c1nc(-c2nnn[nH]2)cs1)c1c[nH]c2ccccc12 [Compound 35]
Second: N#Cc1csc(C(=O)c2c[nH]c3ccccc23)n1 [Compound 29]
The EC50 of the first is higher: 1000 to 10000 nM for the first, 1 to 1000 nM for the second.

Compared with `COC(=O)c1nnc(C(=O)c2c[nH]c3ccccc23)o1` [Compound 34], `CC(C)c1cnc(C(=O)c2c[nH]c3ccccc23)s1` [Compound 10] is higher in EC50: 1000 to 10000 nM for the first, 10000 to 100000 nM for the second. The first is the more potent here.

`COC(=O)c1csc(C(=O)c2cn(C3OC(COC(C)=O)C(OC(C)=O)C(OC(C)=O)C3OC(C)=O)c3ccccc23)n1` (centres unmarked) [Compound 38-2] and `COC(=O)c1csc(C(=O)c2cn(C3OC(CO)C(O)C(O)C3O)c3ccccc23)n1` (centres unmarked) [Compound 38-4] fall in the same range of EC50: 1 to 1000 nM for the first, 1 to 1000 nM for the second.

`O=C(c1nc(C2CC2)cs1)c1c[nH]c2ccccc12` [Compound 41] and `COC(=O)c1csc(C(=O)c2cn(COC(=O)[C@@H](N)C(C)(C)C)c3ccccc23)n1` [Compound 2-2] fall in the same range of EC50: 1 to 1000 nM for the first, 1 to 1000 nM for the second.
